Data: ChEMBL document CHEMBL5375988, “AcGlcAs: A Novel P53-Targeting Arsenical with Potent Cellular Uptake and Cancer Cell Selectivity” (J Med Chem, 2023)
Activity calls are given as the source filed them. The rule behind the calls is not given here. Peptide text beside a SMILES is read from it. * marks the point of attachment. Cbz = O=C(OCc1ccccc1)*; CH2F = FC*

Key:
[1] = system: Cellular tumor antigen p53 (Homo sapiens), P04637 [V272M]; experiment: Thermostabilization of recombinant p53 V272M mutant (unknown origin) […] assessed as increase in melting temperature at 1:15 ratio in HEPES at pH 7.5 by DSF analysis
[2] = system: NB-4; experiment: Antiproliferative activity against human NB4 cells expressing PML/RARalpha assessed as cell growth inhibition measured after 48 hrs by CCK-8 assay; format: functional, cell-based
[3] = biological target: T1, PML-RARalpha (Homo sapiens) (UniProt P10276+P29590); experiment: Induction of Flag-tagged PML/RARalpha (unknown origin) degradation overexpressed in HEK293T cells at 13 to 65 uM incubated for 16 hrs by Western blot analysis; format: cell-based; conditions: dose 13-65 µM
T1 sequence (P10276 whole entry, looked up): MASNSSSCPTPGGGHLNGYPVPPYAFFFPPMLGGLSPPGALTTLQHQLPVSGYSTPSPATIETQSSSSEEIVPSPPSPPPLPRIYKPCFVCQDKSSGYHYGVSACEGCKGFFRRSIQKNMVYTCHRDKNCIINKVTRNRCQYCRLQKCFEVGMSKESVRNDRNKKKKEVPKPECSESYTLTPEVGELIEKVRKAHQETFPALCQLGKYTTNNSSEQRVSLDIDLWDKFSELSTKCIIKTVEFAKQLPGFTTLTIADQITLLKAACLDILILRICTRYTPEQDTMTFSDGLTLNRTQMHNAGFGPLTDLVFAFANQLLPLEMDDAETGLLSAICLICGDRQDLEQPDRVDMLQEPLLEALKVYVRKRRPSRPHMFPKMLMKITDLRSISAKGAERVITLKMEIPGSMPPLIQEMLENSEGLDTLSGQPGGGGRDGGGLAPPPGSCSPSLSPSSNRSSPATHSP
T1 sequence (P29590 whole entry, looked up): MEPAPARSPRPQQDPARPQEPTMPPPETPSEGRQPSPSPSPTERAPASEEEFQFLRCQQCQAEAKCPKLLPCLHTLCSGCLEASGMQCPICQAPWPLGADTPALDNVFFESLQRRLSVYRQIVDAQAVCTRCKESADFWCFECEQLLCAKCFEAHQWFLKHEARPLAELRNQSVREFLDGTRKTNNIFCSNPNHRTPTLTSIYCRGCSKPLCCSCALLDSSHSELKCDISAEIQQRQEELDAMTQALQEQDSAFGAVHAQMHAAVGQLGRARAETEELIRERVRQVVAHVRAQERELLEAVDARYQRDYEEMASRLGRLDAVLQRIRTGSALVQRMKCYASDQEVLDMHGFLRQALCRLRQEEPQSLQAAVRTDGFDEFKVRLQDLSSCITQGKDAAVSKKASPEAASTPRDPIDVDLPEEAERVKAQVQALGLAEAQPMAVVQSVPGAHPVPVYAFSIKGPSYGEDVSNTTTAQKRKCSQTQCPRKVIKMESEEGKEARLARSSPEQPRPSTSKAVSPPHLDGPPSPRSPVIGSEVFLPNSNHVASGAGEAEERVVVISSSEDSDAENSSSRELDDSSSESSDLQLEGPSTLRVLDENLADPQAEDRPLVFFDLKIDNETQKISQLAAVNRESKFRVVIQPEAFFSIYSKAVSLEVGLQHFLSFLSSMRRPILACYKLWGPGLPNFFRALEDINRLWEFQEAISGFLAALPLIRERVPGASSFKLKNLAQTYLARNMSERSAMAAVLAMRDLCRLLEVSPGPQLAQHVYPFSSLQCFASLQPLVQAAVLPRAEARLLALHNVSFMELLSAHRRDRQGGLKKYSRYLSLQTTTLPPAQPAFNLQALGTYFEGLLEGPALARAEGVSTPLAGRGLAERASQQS

[4] = biological target: T1, PML-RARalpha (Homo sapiens); experiment: Induction of Flag-tagged PML/RARalpha (unknown origin) degradation overexpressed in HEK293T cells at 0.3 to 1.5 uM incubated for 16 hrs by Western blot analysis; format: cell-based; conditions: dose 0.3-1.5 µM
[5] = system: Cellular tumor antigen p53 (Homo sapiens), P04637 [V272M]; experiment: Restoration of p53-V272M mutant transcriptional activity on CDKN1A promoter in human NCI-H1299 cells at 22 uM measured after 24 hrs by firefly/renilla based luciferase reporter assay; format: cell-based; conditions: filed as activator
[6] = system: Cellular tumor antigen p53 (Homo sapiens), P04637 [V272M]; experiment: Restoration of p53-V272M mutant transcriptional activity on PUMA promoter in human NCI-H1299 cells at 22 uM measured after 24 hrs by firefly/renilla based luciferase reporter assay; format: cell-based; conditions: filed as activator
[7] = biological target: T1, PML-RARalpha (Homo sapiens); experiment: Induction of Flag-tagged PML/RARalpha (unknown origin) degradation overexpressed in HEK293T cells at 7.2 to 36 uM incubated for 16 hrs by Western blot analysis; format: cell-based; conditions: dose 7.2-36 µM
[8] = system: GTPase KRas (Homo sapiens), P01116 [G12C]; experiment: Binding affinity to KRAS-G12C mutant (unknown origin) with exposed Cys12 assessed as increase in melting temperature at 1:15 ratio in HEPES at pH 7.5 by DSF analysis
Sequence of GTPase KRas (Homo sapiens), P01116 [G12C] (P01116 whole entry G12C): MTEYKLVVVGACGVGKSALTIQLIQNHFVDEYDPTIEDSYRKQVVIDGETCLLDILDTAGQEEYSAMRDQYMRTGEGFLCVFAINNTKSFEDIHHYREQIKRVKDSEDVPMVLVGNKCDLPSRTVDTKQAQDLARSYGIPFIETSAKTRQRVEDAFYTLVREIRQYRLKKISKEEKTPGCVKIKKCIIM

[9] = system: NB-4; experiment: Induction of apoptosis in human NB4 cells assessed as early apoptotic cells at 27 uM preincubated for 1 hrs followed by replacement with fresh culture medium and measured after 24 hrs by Annexin V-FITC/7AAD staining based flow cytometry assay (reference value: 1.93%); format: functional
[10] = system: NB-4; experiment: Induction of apoptosis in human NB4 cells assessed as viable cells at 3 uM preincubated for 1 hrs followed by replacement with fresh culture medium and measured after 24 hrs by Annexin V-FITC/7AAD staining based flow cytometry assay (reference value: 94%); format: functional; conditions: read-out: Activity
[11] = Half life in iv dosed mouse; format: ADME, organism-based; conditions: in vivo
[12] = Half life in po dosed human; format: ADME, organism-based; conditions: in vivo
[13] = system: NB-4; experiment: Induction of apoptosis in human NB4 cells assessed as viable cells at 27 uM preincubated for 1 hrs followed by replacement with fresh culture medium and measured after 24 hrs by Annexin V-FITC/7AAD staining based flow cytometry assay (reference value: 94%); format: functional; conditions: read-out: Activity
[14] = system: NB-4; experiment: Induction of granulocytic differentiation in human NB4 cells assessed as CD11b positive cells at 9 uM incubated for 1 hrs followed by replacement with fresh culture medium for 48 hrs by flow cytometry analysis relative to control; format: functional
[15] = Half life in iv dosed rat; format: ADME, organism-based; conditions: in vivo
[16] = biological target: T1, PML-RARalpha (Homo sapiens); experiment: Induction of PML/RARalpha degradation in human NB4 cells assessed as residual protein level at 9 uM incubated for 1 hrs followed by replacement with fresh culture medium and measured after 16 hrs by Western blot analysis (reference value: 1); format: cell-based
[17] = system: NB-4; experiment: Induction of apoptosis in human NB4 cells assessed as necrotic cells at 3 uM preincubated for 1 hrs followed by replacement with fresh culture medium and measured after 24 hrs by Annexin V-FITC/7AAD staining based flow cytometry assay (reference value: 0.10%); format: functional
[18] = system: NB-4; experiment: Induction of apoptosis in human NB4 cells assessed as early apoptotic cells at 9 uM preincubated for 1 hrs followed by replacement with fresh culture medium and measured after 24 hrs by Annexin V-FITC/7AAD staining based flow cytometry assay (reference value: 1.93%); format: functional
[19] = system: NB-4; experiment: Induction of apoptosis in human NB4 cells assessed as viable cells at 9 uM preincubated for 1 hrs followed by replacement with fresh culture medium and measured after 24 hrs by Annexin V-FITC/7AAD staining based flow cytometry assay (reference value: 94%); format: functional; conditions: read-out: Activity
[20] = Half life in iv dosed human; format: ADME, organism-based; conditions: in vivo
[21] = biological target: T1, PML-RARalpha (Homo sapiens); experiment: Induction of PML/RARalpha degradation in human NB4 cells assessed as residual protein level at 0.3 uM incubated for 1 hrs followed by replacement with fresh culture medium and measured after 16 hrs by Western blot analysis (reference value: 1); format: cell-based
[22] = system: NB-4; experiment: Induction of granulocytic differentiation in human NB4 cells assessed as CD11b positive cells at 3 uM incubated for 1 hrs followed by replacement with fresh culture medium for 48 hrs by flow cytometry analysis relative to control; format: functional
[23] = biological target: T1, PML-RARalpha (Homo sapiens); experiment: Induction of PML/RARalpha degradation in human NB4 cells assessed as residual protein level at 0.1 uM incubated for 1 hrs followed by replacement with fresh culture medium and measured after 16 hrs by Western blot analysis (reference value: 1); format: cell-based
[24] = biological target: T1, PML-RARalpha (Homo sapiens); experiment: Induction of PML/RARalpha degradation in human NB4 cells assessed as residual protein level at 3 uM incubated for 1 hrs followed by replacement with fresh culture medium and measured after 16 hrs by Western blot analysis (reference value: 1); format: cell-based
[25] = system: Cellular tumor antigen p53 (Homo sapiens), P04637 [V272M]; experiment: Rescue of p53-V272M mutant transcriptional activity on PUMA promoter in human NCI-H1299 cells assessed as fold change in transcriptional activity at 10 uM pretreated for 10 mins to1 hr followed by replacement with fresh culture media and measured after 24 hrs by firefly/renilla based luciferase reporter assay; format: cell-based; conditions: filed as activator, time 10-60 min
[26] = system: NB-4; experiment: Induction of apoptosis in human NB4 cells assessed as late apoptotic cells at 27 uM preincubated for 1 hrs followed by replacement with fresh culture medium and measured after 24 hrs by Annexin V-FITC/7AAD staining based flow cytometry assay (reference value: 3.92%); format: functional
[27] = system: NB-4; experiment: Induction of apoptosis in human NB4 cells assessed as late apoptotic cells at 3 uM preincubated for 1 hrs followed by replacement with fresh culture medium and measured after 24 hrs by Annexin V-FITC/7AAD staining based flow cytometry assay (reference value: 3.92%); format: functional
[28] = biological target: T1, PML-RARalpha (Homo sapiens); experiment: Induction of PML/RARalpha degradation in human NB4 cells assessed as residual protein level at 1 uM incubated for 1 hrs followed by replacement with fresh culture medium and measured after 16 hrs by Western blot analysis (reference value: 1); format: cell-based
[29] = system: U-937; experiment: Cytotoxicity against p53 null human U-937 cells harboring p53 V272M mutant incubated for 48 hrs by CCK-8 assay; format: functional, cell-based; conditions: U-937, 48 h
[30] = system: NB-4; experiment: Induction of granulocytic differentiation in human NB4 cells assessed as increase in CD11b expression at 3 uM incubated for 1 hrs followed by replacement with fresh culture medium for 48 hrs by flow cytometry analysis (reference value: 1.44%); format: functional
[31] = system: NB-4; experiment: Induction of granulocytic differentiation in human NB4 cells assessed as increase in CD11b expression at 9 uM incubated for 1 hrs followed by replacement with fresh culture medium for 48 hrs by flow cytometry analysis (reference value: 1.44%); format: functional
[32] = system: NB-4; experiment: Induction of apoptosis in human NB4 cells assessed as late apoptotic cells at 9 uM preincubated for 1 hrs followed by replacement with fresh culture medium and measured after 24 hrs by Annexin V-FITC/7AAD staining based flow cytometry assay (reference value: 3.92%); format: functional
[33] = system: NB-4; experiment: Induction of apoptosis in human NB4 cells assessed as necrotic cells at 27 uM preincubated for 1 hrs followed by replacement with fresh culture medium and measured after 24 hrs by Annexin V-FITC/7AAD staining based flow cytometry assay (reference value: 0.10%); format: functional
[34] = system: U-937; experiment: Cytotoxicity against p53 null human U-937 cells harboring empty vector incubated for 48 hrs by CCK-8 assay; format: functional, cell-based; conditions: U-937, 48 h
[35] = system: NB-4; experiment: Induction of apoptosis in human NB4 cells assessed as necrotic cells at 9 uM preincubated for 1 hrs followed by replacement with fresh culture medium and measured after 24 hrs by Annexin V-FITC/7AAD staining based flow cytometry assay (reference value: 0.10%); format: functional
[36] = system: NB-4; experiment: Induction of apoptosis in human NB4 cells assessed as early apoptotic cells at 3 uM preincubated for 1 hrs followed by replacement with fresh culture medium and measured after 24 hrs by Annexin V-FITC/7AAD staining based flow cytometry assay (reference value: 1.93%); format: functional
[37] = Plasma stability in dog assessed as half life at […] measured upto 120 mins by LC-MS analysis; format: ADME, cell-free, Canis lupus familiaris
[38] = biological target: T1, PML-RARalpha (Homo sapiens); experiment: Induction of Flag-tagged PML/RARalpha (unknown origin) degradation overexpressed in HEK293T cells at 4.2 to 21 uM incubated for 16 hrs by Western blot analysis; format: cell-based; conditions: dose 4.2-21 µM
[39] = Plasma stability in monkey assessed as half life at […] measured upto 120 mins by LC-MS analysis; format: ADME, cell-free, Macaca mulatta; conditions: rhesus monkey
[40] = Plasma stability in mouse assessed as half life at […] measured upto 120 mins by LC-MS analysis; format: ADME, cell-free
[41] = Plasma stability in human assessed as half life at […] measured upto 120 mins by LC-MS analysis; format: ADME, cell-free
[42] = biological target: Replicase polyprotein 1ab (Severe acute respiratory syndrome coronavirus 2) (UniProt P0DTD1); experiment: Binding affinity to SARS-CoV-2 MPro with exposed Cys145 assessed as increase in melting temperature at 1:15 ratio in HEPES at pH 7.5 by DSF analysis

S=[As][As]=S (stereo not given)
Activity [1]: inactive

S1[As]2S[As]3S[As]2S[As]13
Activity [1]: inactive

O=[As]12O[As]3(=O)O[As](=O)(O1)O[As](=O)(O2)O3
IC50 ([2]; nb-4): 5560 nM | Activity [3]: Active

O=[As]O [SODIUM ARSENITE]
IC50 ([2]; Homo sapiens, NB-4, 48 h): 110 nM | Activity [4]: Active

S=[As](=S)S[As](=S)=S
IC50 ([2]; nb-4): 1200 nM | Activity [5]: Active | Activity [6]: Active | Activity [7]: Active

C=CC(=O)N1CCN(c2ncnc3c(F)c(-c4c(O)cccc4F)c(Cl)cc23)CC1
Activity [8]: Active

Nc1ccc([As](=O)(O)O)cc1 [ARSANILIC ACID]
IC50 ([2]; Homo sapiens, NB-4, 48 h): > 50000 nM

O=S(=O)(O)c1cc(O)c2c(O)c(/N=N/c3ccccc3[As](=O)(O)O)c(S(=O)(=O)O)cc2c1
IC50 ([2]; Homo sapiens, NB-4, 48 h): > 50000 nM

O=[As][As+](=O)[O-] (stereo not given) [ARSENIC TRIOXIDE]
IC50 ([2]; Homo sapiens, NB-4, 48 h): 940 nM | Activity [9]: 2.88% | viability at 3 µM [10]: 93.8% | half-life [11]: ~258 min | half-life [12]: 360 min | viability at 27 µM [13]: 93.3% | Activity [14]: 2% | half-life [15]: ~222 min | Activity [16]: 0.41 | Activity [17]: 0.23% | Activity [18]: 2.83% | viability at 9 µM [19]: 93.6% | half-life [20]: 60 min | Activity [21]: 0.6 | Activity [22]: 1.7% | Activity [23]: 0.81 | Activity [24]: 0.49 | fold change (FC) [25]: 2.2 | Activity [26]: 3.59% | Activity [27]: 3.48% | Activity [28]: 0.57 | IC50 [29]: 1070 nM | Activity [30]: 1.65% | Activity [31]: 1.93% | Activity [32]: 3.42% | Activity [33]: 0.21% | IC50 [34]: > 2000 nM | Activity [35]: 0.17% | Activity [36]: 2.54%

CC(=O)Oc1ccc(C(c2ccc(OC(C)=O)cc2)c2ccccn2)cc1 [BISACODYL]
half-life [37]: 2.06 min

S1[As]2S[As]3S[As]1S[As](S2)S3
IC50 ([2]; nb-4): 1990 nM | Activity [1]: inactive | Activity [38]: Active

CCN(CC)CCOC(=O)c1ccc(N)cc1 [PROCAINE]
half-life [39]: 4.5 min | half-life [40]: 9.83 min | half-life [41]: 1.4 min

COC(=O)C[C@H](NC(=O)[C@H](C)NC(=O)[C@@H](NC(=O)OCc1ccccc1)C(C)C)C(=O)CF (Cbz-Val-Ala-Asp(OMe)-CH2F)
Activity [42]: Active
